US20050032160A1, “Cell-based therapies for diabetes mellitus and other glucose intolerant states” (priority 2003, published 2005)
Entries after “also recorded” stand apart in the source; their conditions may differ.

Assays:
832/13 cells = assay: Insulin secretion assay (radioimmunoassay) in 832/13 cells; type: cell-based, rat; conditions: relative to glucose or pyruvate
Method: The cell line 832/13 was created from INS-1 insulinoma β-cells as described earlier (Hohmeier et al. (2000) Diabetes 49:424-430). Cells were cultured in RPMI-1640 medium containing 11 mM glucose supplemented with 10% fetal bovine serum, 10 mM HEPES, 2 mM glutamine, 1 mM sodium pyruvate and […] β-mercaptoethanol. Media was routinely changed every second day. 832/13 cells were split to a cell density of 20-30% confluence in 12 well plates. At a cell density of 90%, cells were exposed to virus by adding crude extract directly to the growth media. After 16 hours of transduction, virus containing media was removed and the cells were cultured in fresh media in additional 24 hours before secretion assays. Insulin secretion was assayed in HEPES buffered saline solution (HBSS) (114 mM NaCl, 4.7 mM KCl,1.2 mM KH2PO4, 1.16 mM MgSO4, 20 mM HEPES, 2.5 mM CaCl2, 25.5 mM NaHCO3, pH 7.2 containing 0.2% bovine serum albumin (essentially fatty acid free). Cells were washed in 1 ml of HBSS, preincubated in 1.5 ml of HBSS for 2 hour prior to a 2 hour incubation in the presence of secretagogues as indicated in the figures. The insulin levels were determined by radioimmunoassay with the Coat-A-Count kit (ICN Pharmaceuticals, Costa Mesa, Calif.) and lactate output was determined with a Lactate Reagent kit (Sigma, St. Louis, Mo.) according to protocols outlined by the manufacturer.

β-cell = conditions: non-metabolizable analogs of glucose; cited from earlier work
rat INS-1 cells = conditions: glucose-responsive clones; correlated with pyruvate cycling; cited from earlier work
[1] = test system: glycerol kinase overexpressing 832/13 cells; assay: Insulin secretion in glycerol kinase overexpressing 832/13 cells; type: cell-based, rat; conditions: glucose versus glycerol
Description: (§1) FIG. 9 depicts the effect of glycerol kinase overexpression in 832/13 cells on insulin excretion, lactate output and pyruvate cycling.
(§2) In contrast, pyruvate cycling and lactate output are higher in response to glycerol than to glucose.

[2] = test system: glycerol kinase overexpressing 832/13 cells; assay: Lactate output in glycerol kinase overexpressing 832/13 cells; type: cell-based, rat; conditions: glycerol versus glucose
Description: as §1, §2

[3] = test system: glycerol kinase overexpressing 832/13 cells; assay: Pyruvate cycling (13C studies) in glycerol kinase overexpressing 832/13 cells; type: cell-based, rat; conditions: glycerol versus glucose
Description: as §1, §2

Q: Which results are given for `CC(O)C(=O)O` (stereo not shown) [lactate]?
A: stimulation of insulin secretion as secretagogue (832/13 cells; 832/13 cells overexpressing LDHA): as effective as the other two fuels; also recorded: as effective as glucose or pyruvate; stimulation of insulin secretion as secretagogue (832/13 cells; 832/13 cells without LDH overexpression): poor secretagogue; also recorded: only a weak stimulator of IS; stimulation of insulin secretion as secretagogue (832/13 cells; 832/13 cells without LDH overexpression, listed as Lactate): poor secretagogue

Q: With `O=CC[C@@H](O)[C@H](O)[C@H](O)CO` [2-deoxy glucose] as the compound, how does the “stimulation of insulin release” value (β-cell) read?
A: Its value is “fail to stimulate insulin release”.

Q: For `O=C(O)CC(O)C(=O)O` (stereo not shown) [malate], which “effect on glucose-stimulated IS” value (rat INS-1 cells) is on record?
A: Its value is “potentiated”.

Q: With `O=C(O)Cc1ccccc1` [phenylacetic acid] as the compound, how does the “effect on glucose-stimulated IS” value (rat INS-1 cells) read?
A: The value was “impaired”.

Q: With `CO[C@@H]([C@H](O)[C@H](O)CO)[C@@H](O)C=O` [3-O-methyl glucose] as the compound, how does the “stimulation of insulin release” value (β-cell) read?
A: The value was “fail to stimulate insulin release”.

Q: With `OCC(O)CO` [glycerol] as the compound, how does the “stimulation of insulin secretion” value [1] read?
A: Its value is “to the same extent”.

Q: What about the lactate output [2] of the same compound?
A: Its lactate output is “higher”.

Q: What about the pyruvate cycling [3] of the same compound?
A: Its pyruvate cycling is “higher”.
